Data published in US20240368173A1, “TRICYCLIC GPR65 MODULATORS” (PATHIOS THERAPEUTICS LIMITED, priority 2021, published 2024).

Target: human recombinant GPR65 (Homo sapiens, UniProt Q8IYL9)
Test: Human GPR65 cAMP HTRF antagonist assay
Format: cell-based
Settings: not given
Method in brief: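 Antagonism measured as suppression of the cAMP rise when pH is dropped to 7.2 (control wells pH 7.9) in 1321N1 cells stably carrying human GPR65. Cells in KRH with 1 mM IBMX and 200 μM EDTA saw compound 30 min, then acid stimulation 30 min; HTRF cAMP detection, normalised, 4-parameter logistic IC50.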

Sequence of human recombinant GPR65 (Q8IYL9 whole entry): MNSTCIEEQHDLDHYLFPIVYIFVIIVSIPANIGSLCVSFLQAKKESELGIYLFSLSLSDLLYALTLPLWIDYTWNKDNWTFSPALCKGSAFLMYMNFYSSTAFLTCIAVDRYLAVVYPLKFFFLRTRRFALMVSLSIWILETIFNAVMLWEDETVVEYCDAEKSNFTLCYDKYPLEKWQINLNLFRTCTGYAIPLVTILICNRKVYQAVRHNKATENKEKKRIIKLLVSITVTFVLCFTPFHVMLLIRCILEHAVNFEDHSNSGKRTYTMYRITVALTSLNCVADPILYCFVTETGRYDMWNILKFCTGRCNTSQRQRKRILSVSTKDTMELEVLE

Row | SMILES | IC50 [nM]
1 | O=C(Nc1cc(Cl)c(OC2CCC2)cc1F)N1[C@H]2CC[C@@H]1c1c[nH]c(=O)cc1C2 [Compound 81, (6S,9R)-N-(5-Chloro-4-cyclobutoxy-2-fluorophenyl)-3-oxo-3,5,6,7,8,9-hexahydro-2H-6,9-epiminocyclohepta[c]pyridine-10-carboxamide] | < 500
2 | O=C(Nc1cc(Cl)c(-c2ccc(OCC(F)(F)F)nc2)cc1F)N1[C@H]2CC[C@@H]1c1ccnc(F)c1C2 [Compound 240, (5R,8S)-N-(5-Chloro-2-fluoro-4-(6-(2,2,2-trifluoroethoxy)pyridin-3-yl)phenyl)-1-fluoro-6,7,8,9-tetrahydro-5H-5,8-epiminocyclohepta[c]pyridine-10-carboxamide] | < 500
3 | O=C(Nc1cc(Cl)c(Cl)cc1F)N1C2CCC1c1n[nH]c(=O)cc1C2 (racemic) [Compound 2, (±)-N-(4,5-Dichloro-2-fluorophenyl)-3-oxo-3,5,6,7,8,9-hexahydro-2H-6,9-epiminocyclohepta[c]pyridazine-10-carboxamide] | < 500
4 | COc1cc(-c2cc(F)c(NC(=O)N3[C@H]4CC[C@@H]3c3ccnc(F)c3C4)cc2Cl)ccn1 [Compound 264, (5R,8S)-N-(5-Chloro-2-fluoro-4-(2-methoxypyridin-4-yl)phenyl)-1-fluoro-6,7,8,9-tetrahydro-5H-5,8-epiminocyclohepta[c]pyridine-10-carboxamide] | < 500
5 | O=C(Nc1ccc(C(F)(F)F)c(Cl)c1)N1C2CCC1c1n[nH]c(=O)cc1C2 (racemic) [Compound 76, (±)-N-(3-Chloro-4-(trifluoromethyl)phenyl)-3-oxo-3,5,6,7,8,9-hexahydro-2H-6,9-epiminocyclohepta[c]pyridazine-10-carboxamide] | < 500
6 | O=C(Nc1cc(Cl)c(OCc2ccccc2)cc1F)N1[C@H]2CC[C@@H]1c1n[nH]c(=O)cc1C2 [Compound 237, (6S,9R)-N-(4-(Benzyloxy)-5-chloro-2-fluorophenyl)-3-oxo-3,5,6,7,8,9-hexahydro-2H-6,9-epiminocyclohepta[c]pyridazine-10-carboxamide] | < 500
7 | O=C(Nc1cc(Cl)c(-c2ccc(OC(CF)CF)nc2)cc1F)N1[C@H]2CC[C@@H]1c1n[nH]c(=O)cc1C2 [Compound 307, (6S,9R)-N-(5-Chloro-4-(6-((1,3-difluoropropan-2-yl)oxy)pyridin-3-yl)-2-fluorophenyl)-3-oxo-3,5,6,7,8,9-hexahydro-2H-6,9-epiminocyclohepta[c]pyridazine-10-carboxamide] | < 500
8 | O=C(Nc1cc(Cl)c(C(F)(F)F)cc1F)N1[C@@H]2CC[C@H]1c1ccnc(F)c1C2 [Compound 194, (5S,8R)-N-(5-Chloro-2-fluoro-4-(trifluoromethyl)phenyl)-1-fluoro-6,7,8,9-tetrahydro-5H-5,8-epiminocyclohepta[c]pyridine-10-carboxamide] | < 500
9 | Cc1nc2cc(-c3cc(F)c(NC(=O)N4[C@H]5CC[C@@H]4c4ccnc(F)c4C5)cc3Cl)ccc2o1 [Compound 233, (5R,8S)-N-(5-Chloro-2-fluoro-4-(2-methylbenzo[d]oxazol-5-yl)phenyl)-1-fluoro-6,7,8,9-tetrahydro-5H-5,8-epiminocyclohepta[c]pyridine-10-carboxamide] | < 500
10 | Cc1nc2cc(-c3cc(F)c(NC(=O)N4[C@H]5CC[C@@H]4c4c[nH]c(=O)cc4C5)cc3Cl)ccc2o1 [Compound 232, (6S,9R)-N-(5-Chloro-2-fluoro-4-(2-methylbenzo[d]oxazol-5-yl)phenyl)-3-oxo-3,5,6,7,8,9-hexahydro-2H-6,9-epiminocyclohepta[c]pyridine-10-carboxamide] | < 500
11 | O=C(Nc1cc(Cl)c(-c2ccc(OCCF)nc2)cc1F)N1[C@H]2CC[C@@H]1c1n[nH]c(=O)cc1C2 [Compound 291, (6S,9R)-N-(5-Chloro-2-fluoro-4-(6-(2-fluoroethoxy)pyridin-3-yl)phenyl)-3-oxo-3,5,6,7,8,9-hexahydro-2H-6,9-epiminocyclohepta[c]pyridazine-10-carboxamide] | < 500
12 | Cc1nn(C)c(C)c1-c1cc(F)c(NC(=O)N2[C@H]3CC[C@@H]2c2n[nH]c(=O)cc2C3)cc1Cl [Compound 150, (6S,9R)-N-(5-Chloro-2-fluoro-4-(1,3,5-trimethyl-1H-pyrazol-4-yl)phenyl)-3-oxo-3,5,6,7,8,9-hexahydro-2H-6,9-epiminocyclohepta[c]pyridazine-10-carboxamide] | 500 to 5000
13 | O=C(Nc1cc(Cl)c(Cl)cc1F)N1[C@H]2CC[C@@H]1c1c(OCc3ccccc3)cnc(F)c1C2 [Compound 102, (5R,8S)-4-(benzyloxy)-N-(4,5-dichloro-2-fluorophenyl)-1-fluoro-6,7,8,9-tetrahydro-5H-5,8-epiminocyclohepta[c]pyridine-10-carboxamide] | < 500
14 | Cn1ccc2c(-c3cc(F)c(NC(=O)N4[C@H]5CC[C@@H]4c4n[nH]c(=O)cc4C5)cc3Cl)ccnc21 [Compound 282, (6S,9R)-N-(5-Chloro-2-fluoro-4-(1-methyl-1H-pyrrolo[2,3-b]pyridin-4-yl)phenyl)-3-oxo-3,5,6,7,8,9-hexahydro-2H-6,9-epiminocyclohepta[c]pyridazine-10-carboxamide] | < 500
15 | O=C(Nc1cc(Cl)c(-c2ccc(F)nc2)cn1)N1[C@H]2CC[C@@H]1c1n[nH]c(=O)cc1C2 [Compound 230, (6S,9R)-N-(4-Chloro-6′-fluoro-[3,3′-bipyridin]-6-yl)-3-oxo-3,5,6,7,8,9-hexahydro-2H-6,9-epiminocyclohepta[c]pyridazine-10-carboxamide] | < 500
16 | O=C(Nc1cc(-c2ccccc2)on1)N1[C@H]2CC[C@@H]1c1n[nH]c(=O)cc1C2 [Compound 166, (6S,9R)-3-Oxo-N-(5-phenylisoxazol-3-yl)-3,5,6,7,8,9-hexahydro-2H-6,9-epiminocyclohepta[c]pyridazine-10-carboxamide] | < 500
17 | O=C(Nc1cc(Cl)c(-c2ccc(OC3CC3)nc2)cc1F)N1[C@H]2CC[C@@H]1c1c[nH]c(=O)cc1C2 [Compound 222, (6S,9R)-N-(5-Chloro-4-(6-cyclopropoxypyridin-3-yl)-2-fluorophenyl)-3-oxo-3,5,6,7,8,9-hexahydro-2H-6,9-epiminocyclohepta[c]pyridine-10-carboxamide] | < 500
18 | C=C1c2ccnc(F)c2[C@H]2CC[C@@H]1N2C(=O)Nc1cc(Cl)c(Cl)cc1F [Compound 106, (6S,9R)-N-(4,5-Dichloro-2-fluorophenyl)-1-fluoro-5-methylene-6,7,8,9-tetrahydro-5H-6,9-epiminocyclohepta[c]pyridine-10-carboxamide] | 500 to 5000
19 | O=C(Nc1ccc(Br)c(C(F)(F)F)c1)N1[C@H]2CC[C@@H]1c1n[nH]c(=O)cc1C2 [Compound 47, (6S,9R)-N-(4-Bromo-3-(trifluoromethyl)phenyl)-3-oxo-3,5,6,7,8,9-hexahydro-2H-6,9-epiminocyclohepta[c]pyridazine-10-carboxamide] | < 500

Same assay, conditions: 1321N1-hrGPR65 cells, cAMP HTRF, assay pH 7.2; read-out: hGPR65 IC50 (Activity of selected compounds according to the invention)

Row | SMILES | IC50 [nM]
20 | O=C1NCCc2cc(-c3cc(F)c(NC(=O)N4[C@H]5CC[C@@H]4c4n[nH]c(=O)cc4C5)cc3Cl)ccc21 [Compound 151, (6S,9R)-N-(5-Chloro-2-fluoro-4-(1-oxo-1,2,3,4-tetrahydroisoquinolin-6-yl)phenyl)-3-oxo-3,5,6,7,8,9-hexahydro-2H-6,9-epiminocyclohepta[c]pyridazine-10-carboxamide] | > 5000
21 | O=C(Nc1cc(Br)c(C(F)(F)F)cc1F)N1[C@@H]2CC[C@H]1c1n[nH]c(=O)cc1C2 [Compound 34, (6R,9S)-N-(5-Bromo-2-fluoro-4-(trifluoromethyl)phenyl)-3-oxo-3,5,6,7,8,9-hexahydro-2H-6,9-epiminocyclohepta[c]pyridazine-10-carboxamide] | > 5000
22 | O=C(Nc1cc(Cl)c(-c2cnccn2)cc1F)N1[C@H]2CC[C@@H]1c1n[nH]c(=O)cc1C2 [Compound 271, (6S,9R)-N-(5-Chloro-2-fluoro-4-(pyrazin-2-yl)phenyl)-3-oxo-3,5,6,7,8,9-hexahydro-2H-6,9-epiminocyclohepta[c]pyridazine-10-carboxamide] | 500 to 5000
23 | Nc1ccc(-c2cc(F)c(NC(=O)N3[C@H]4CC[C@@H]3c3n[nH]c(=O)cc3C4)cc2Cl)cn1 [Compound 118, (6S,9R)-N-(4-(6-Aminopyridin-3-yl)-5-chloro-2-fluorophenyl)-3-oxo-3,5,6,7,8,9-hexahydro-2H-6,9-epiminocyclohepta[c]pyridazine-10-carboxamide] | 500 to 5000
24 | O=C(Nc1cc(Cl)c(-c2ccnnc2)cc1F)N1[C@H]2CC[C@@H]1c1n[nH]c(=O)cc1C2 [Compound 174, (6S,9R)-N-(5-Chloro-2-fluoro-4-(pyridazin-4-yl)phenyl)-3-oxo-3,5,6,7,8,9-hexahydro-2H-6,9-epiminocyclohepta[c]pyridazine-10-carboxamide] | > 5000
25 | CS(=O)(=O)NCc1cccc(-c2cc(F)c(NC(=O)N3[C@H]4CC[C@@H]3c3n[nH]c(=O)cc3C4)cc2Cl)c1 [Compound 203, (6S,9R)-N-(2-Chloro-5-fluoro-3′-(methylsulfonamidomethyl)-[1,1′-biphenyl]-4-yl)-3-oxo-3,5,6,7,8,9-hexahydro-2H-6,9-epiminocyclohepta[c]pyridazine-10-carboxamide] | 500 to 5000
26 | O=C(Nc1cc(Cl)c(C2(O)CC2)cc1F)N1[C@H]2CC[C@@H]1c1ccnc(F)c1C2 [Compound 68, (5R,8S)-N-(5-Chloro-2-fluoro-4-(1-hydroxycyclopropyl)phenyl)-1-fluoro-6,7,8,9-tetrahydro-5H-5,8-epiminocyclohepta[c]pyridine-10-carboxamide] | 500 to 5000
27 | O=C(Nc1cc(Cl)c(-c2ccc3n[nH]nc3c2)cc1F)N1[C@H]2CC[C@@H]1c1n[nH]c(=O)cc1C2 [Compound 140, (6S,9R)-N-(4-(2H-Benzo[d][1,2,3]triazol-5-yl)-5-chloro-2-fluorophenyl)-3-oxo-3,5,6,7,8,9-hexahydro-2H-6,9-epiminocyclohepta[c]pyridazine-10-carboxamide] | 500 to 5000
